According to ChEMBL document CHEMBL4808184, “Discovery and Optimization of DNA Gyrase and Topoisomerase IV Inhibitors with Potent Activity against Fluoroquinolone-Resistant Gram-Positive Bacteria” (J Med Chem, 2021):
In brackets after ≈: the same amount, converted by molar mass.

Key:
[1] = physchem
[2] = test system: HepG2; experiment: cells; details: Homo sapiens, HepG2, 72 h
[3] = test system: Staphylococcus aureus; experiment: microbe, parasite or virus in culture; details: ATCC 49951
[4] = test system: K562; experiment: cells; details: Homo sapiens, K562, 72 h
[5] = in vivo; details: rat, po, 5 mg/kg
[6] = in vivo; details: rat, po, 5 mg/kg; remark: listed apart in the source
[7] = in vivo; details: rat, po, 5 mg/kg; remark: listed apart in the source
[8] = in vitro; details: CD1, mouse, plasma
[9] = in vitro; details: Sprague-Dawley, rat, plasma
[10] = physchem; details: octanol/water, pH 7.4
[11] = test system: Staphylococcus aureus; experiment: microbe, parasite or virus in culture; details: ATCC 49951; remark: listed apart in the source
[12] = in vivo; details: rat, 5 mg/kg
[13] = in vivo; details: rat, po, 5 mg/kg; remark: listed apart in the source
[14] = in vivo; details: rat, iv
[15] = in vitro; details: human, plasma
[16] = in vivo; details: rat, 5 mg/kg; remark: listed apart in the source
[17] = in vivo; details: rat, po, 3.35 mg/kg
[18] = in vitro; details: human, Caco-2
[19] = in vivo; details: rat, po, 3.35 mg/kg; remark: listed apart in the source
[20] = in vivo; details: rat, po, 3.35 mg/kg; remark: listed apart in the source
[21] = in vivo; details: rat, iv, 3.35 mg/kg
[22] = test system: Staphylococcus aureus; experiment: microbe, parasite or virus in culture; details: ATCC 49951; remark: listed apart in the source
[23] = in vitro; details: human, Caco-2; remark: listed apart in the source
[24] = test system: Streptococcus pneumoniae; experiment: microbe, parasite or virus in culture; details: ATCC 49619
[25] = in vivo; details: rat, iv, 3.35 mg/kg; remark: listed apart in the source
[26] = in vivo; details: rat, po, 3.35 mg/kg; remark: listed apart in the source
[27] = test system: Enterococcus faecalis; experiment: microbe, parasite or virus in culture; details: ATCC 29212
[28] = physchem; details: buffer, pH 7

SMILES	pKa [1]	EC50 [2] [µM]	MIC [3] [µg/mL]	EC50 [4] [µM]	logD [10]	MIC [11] [µg/mL]	other results
Cc1c(N2CC[C@@H]([C@H](C)N)C2)c(F)cc2cc(O)c(=O)n(C3CC3)c12	8.2	74	0.5 (≈ 1.45 µM)	65			
Cc1c(N2CCC(C3(N)CC3)C2)c(F)cc2c(CC(=O)N(C)C)cc(=O)n(C3CC3)c12 (centres undefined)	8.5		1 (≈ 2.34 µM)		0.27	2 (≈ 4.69 µM)	Cmax at 24 h [5]: 78 nM; AUC(0-inf) at 24 h [6]: 0.26 µM·h; bioavailability at 24 h [7]: 32.5%; fraction unbound at 4 h, 10 µM [8]: 0.58; fraction unbound at 4 h, 10 µM [9]: 0.33; clearance at 24 h [12]: 49.3 mL/min/kg; Tmax at 24 h [13]: 1.17 h; half-life at 24 h [14]: 1.61 h; fraction unbound at 4 h, 10 µM [15]: 0.57; Vd at 24 h [16]: 3.3 L/kg
C[C@H]1COc2c(N3CC(CN)C4(CCC4)C3)c(F)cc3cc(C(=O)O)c(=O)n1c23 (some centres undefined)	5.2		2 (≈ 4.98 µM)		-0.66	0.125 (≈ 0.311 µM)	
COc1c(N2C[C@@H]3CCCN[C@@H]3C2)c(F)cc2c(=O)c(C(=O)O)cn(C3CC3)c12 [MOXIFLOXACIN]	6.7	> 100	4 (≈ 9.96 µM)	> 100		0.06 (≈ 0.149 µM)	
C[C@H]1COc2c(N3CC4CCC[C@@H](N)[C@H]4C3)c(F)cc3cc(C(=O)O)c(=O)n1c23 (single isomer, unassigned)	5.2		0.25 (≈ 0.623 µM)		-0.68	≤ 0.03	
C[C@H]1COc2c(N3C[C@@H]4CCC[C@H](N)[C@H]4C3)c(F)cc3cc(C(=O)O)c(=O)n1c23	5.2		0.5 (≈ 1.25 µM)		-1.03	0.06 (≈ 0.149 µM)	
Cc1c(N2CC[C@@H](C3(N)CC3)C2)c(F)cc2cc(C(=O)O)c(=O)n(C3CC3)c12	5.1	> 100	1 (≈ 2.59 µM)	> 100	-0.34	0.06 (≈ 0.156 µM)	Cmax at 24 h [17]: 1710 nM; efflux ratio [18]: 0.91; fraction unbound at 4 h, 10 µM [8]: 0.49; Tmax at 24 h [19]: 0.67 h; bioavailability at 24 h [20]: 70%; Vd at 24 h [21]: 0.75 L/kg; fraction unbound at 4 h, 10 µM [9]: 0.3; MIC [22]: 0.5 µg/mL (≈ 1.3 µM); Papp A→B at 2 h, 10 µM [23]: 23.1 ×10⁻⁶ cm/s; MIC [24]: ≤ 0.03 µg/mL; half-life at 24 h [25]: 2.56 h; AUC(0-inf) at 24 h [26]: 5.85 µM·h; fraction unbound at 4 h, 10 µM [15]: 0.21; MIC [27]: 0.25 µg/mL (≈ 0.649 µM); solubility at 24 h [28]: 623 µg/mL (≈ 1620 µM)
Cc1c(N2CC[C@@H](C3(N)CC3)C2)c(F)cc2cc(Cc3n[nH]c(=O)o3)c(=O)n(C3CC3)c12	8.8		32 (≈ 72.8 µM)		0.87	32 (≈ 72.8 µM)	
Cc1c(N2CCC(C3(N)CC3)C2)c(F)cc2c(Cc3noc(=S)[nH]3)cc(=O)n(C3CC3)c12 (centres undefined)	2.5		8 (≈ 17.6 µM)		-0.3	8 (≈ 17.6 µM)	
